The nature of series [1]: Stability of CV-8972 in aqueous solution at different concentrations and pH. Type of series: physicochemical. The method, then:
The stability of CV-8972 was analyzed. Aqueous samples containing CV-8972 at different concentrations and pH were incubated for various periods and analyzed.
Form A of CV-8972 were analyzed for stability in aqueous solution. Aqueous samples containing CV-8972 at different concentrations and pH were incubated for various periods and analyzed.

Series [2] can be described thus: Stability of CV-8972 forms in various solvents, X-ray powder diffraction. To be noted: batch 289-MBA-15-A (form B). Type of series: physicochemical. As for the experimental part:
The stability of CV-8972 was analyzed.
Samples from batch 289-MBA-15-A (containing form B) were added to various solvents, incubated under various conditions, and analyzed by X-ray powder diffraction.
Samples from batch 289-MBA-16 (containing forms A and B) were added to various solvents, incubated under various conditions, and analyzed by X-ray powder diffraction.
Samples from batch S-18-0030513 (containing form A) were added to various solvents, incubated under various conditions, and analyzed by X-ray powder diffraction.

The test system of series [3] is isolated hearts after ischemia-reperfusion. As to the kind of experiment: Ischemia-reperfusion (IR) method, coronary flow. The series is classed as in vivo, mice. The method, then: FIG. 38 is a schematic of the ischemia-reperfusion (IR) method used to analyze the effects of compositions of the invention on coronary flow, cardiac function, and infarct size. […] At 20 minutes, ischemia was induced, and coronary flow was analyzed. At 50 minutes, reperfusion was initiated to restore blood flow. At 170 minutes, coronary flow and cardiac function was analyzed, and then the hearts were preserved, sectioned, and infarct size was measured by triphenyltetrazolium chloride (TTC) staining. FIG. 39 is a graph of coronary flow of after IR.

Series [4] has the same test system. Kind of series: Ischemia-reperfusion (IR) method, cardiac function (LVDP). The series is classed as in vivo, mice. The method, then:
FIG. 38 is a schematic of the ischemia-reperfusion (IR) method used to analyze the effects of compositions of the invention on coronary flow, cardiac function, and infarct size. […] At 20 minutes, ischemia was induced, and coronary flow was analyzed. At 50 minutes, reperfusion was initiated to restore blood flow. At 170 minutes, coronary flow and cardiac function was analyzed, and then the hearts were preserved, sectioned, and infarct size was measured by triphenyltetrazolium chloride (TTC) staining. FIG. 40 is graph of left ventricular developed pressure (LVDP) after IR. Blue bars indicate LVDP at 20 minutes, and orange bars indicate LVDP at 170 minutes.

The test system is the same in series [5]. As to the kind of experiment: Ischemia-reperfusion (IR) method, infarct size by TTC staining. The series is classed as in vivo, mice. To be noted: result in words. The method, then: FIG. 38 is a schematic of the ischemia-reperfusion (IR) method used to analyze the effects of compositions of the invention on coronary flow, cardiac function, and infarct size. […] At 20 minutes, ischemia was induced, and coronary flow was analyzed. At 50 minutes, reperfusion was initiated to restore blood flow. At 170 minutes, coronary flow and cardiac function was analyzed, and then the hearts were preserved, sectioned, and infarct size was measured by triphenyltetrazolium chloride (TTC) staining. […] FIG. 42 is graph of infarct size after TR.

Where “and” joins values, the source holds several entries; their conditions need not be identical. Equal entries are not always repeated.

On to `COc1ccc(CN2CCN(CCOC(=O)c3cccnc3)CC2)c(OC)c1OC.Cl.Cl.Cl` [276-MBA-172], for which the “Retention Time 5.6 (CV-8972 peak)” value is reported as 97.22 in series [1] (2 mg/mL pH 6 (Form A), 1 hrs, measured pH 6.1); 97.01 in series [1] (2 mg/mL pH 6 (Form A), 4 hrs, measured pH 6.1); 96.51 in series [1] (2 mg/mL pH 6 (Form A), 6 hrs, measured pH 6.1); 95.06 in series [1] (2 mg/mL pH 7 (Form A), 1 hrs, measured pH 6.8); 93.7 in series [1] (2 mg/mL pH 7 (Form A), 4 hrs, measured pH 6.7); 92.12 in series [1] (2 mg/mL pH 7 (Form A), 6 hrs, measured pH 6.7). The “Retention Time 5.6 (CV-8972 peak)” value was found to be 91.07 in series [1] (2 mg/mL pH 7 (Form A), 22 hrs, measured pH 6.8); 93.43 in series [1] (10 mg/mL pH 6 (Form A), 1 hrs, measured pH 6.8); 91.82 in series [1] (10 mg/mL pH 6 (Form A), 4 hrs, measured pH 6.8); 91.8 in series [1] (10 mg/mL pH 6 (Form A), 6 hrs, measured pH 6.7); 89.66 in series [1] (10 mg/mL pH 6 (Form A), 22 hrs, measured pH 6.7); 89.05 in series [1] (10 mg/mL pH 7 (Form A), 1 hrs, measured pH 7.2). Also, the “Retention Time 5.6 (CV-8972 peak)” value in series [1] (10 mg/mL pH 7 (Form A), 4 hrs, measured pH 7.1) was found to be 86.8; in series [1] (10 mg/mL pH 7 (Form A), 6 hrs, measured pH 7.1) it was 84.79.

With `COc1ccc(CN2CCN(CCOC(=O)c3cccnc3)CC2)c(OC)c1OC` [CV-8972, 2-(4-(2,3,4-trimethoxybenzyl)piperazin-1-yl)ethyl nicotinate], the XRPD results in series [2] (EtOH, CC from 60° C.) is reported as “Form C + minor”; in series [2] (no solvent, 100° C., 20 minutes), “Form B, shifted”.

As for `COc1ccc(CN2CCN(CCOC(=O)c3cccnc3)CC2)c(OC)c1OC.Cl.Cl.Cl` [289-MBA-15-A], the “Retention Time 5.6 (CV-8972 peak)” value was 95.1 in series [1] (2 mg/mL pH 6 (Form B), 1 hrs, measured pH 6.9); 92.45 in series [1] (2 mg/mL pH 6 (Form B), 4 hrs, measured pH 6.8); 90.65 in series [1] (2 mg/mL pH 6 (Form B), 6 hrs, measured pH 6.8); 89.15 in series [1] (2 mg/mL pH 6 (Form B), 22 hrs, measured pH 6.7); 95.46 in series [1] (2 mg/mL pH 7 (Form B), 1 hrs, measured pH 6.6); 93.92 in series [1] (2 mg/mL pH 7 (Form B), 4 hrs, measured pH 6.5). The “Retention Time 5.6 (CV-8972 peak)” value in series [1] (10 mg/mL pH 6 (Form B), 1 hrs, measured pH 6.1) stood at 94.81; in series [1] (10 mg/mL pH 6 (Form B), 4 hrs, measured pH 6), 94.69; in series [1] (10 mg/mL pH 6 (Form B), 6 hrs, measured pH 5.9), 94.39; in series [1] (10 mg/mL pH 6 (Form B), 22 hrs, measured pH 5.9), 93.93; in series [1] (10 mg/mL pH 7 (Form B), 1 hrs, measured pH 7.4), 86.18; in series [1] (10 mg/mL pH 7 (Form B), 4 hrs, measured pH 7.4), 82.36. In addition, the “Retention Time 5.6 (CV-8972 peak)” value in series [1] (10 mg/mL pH 7 (Form B), 6 hrs, measured pH 7.3) is recorded as 79.37.

Take `COc1ccc(CN2CCNCC2)c(OC)c1OC` [TMZ, trimetazidine]: the CF170/CF20 in series [3] (group MEAN, ratio 170 minutes to 20 minutes) is 4.02E+01 ul/m1; in series [3] (ratio of flow at 170 minutes to flow at 20 minutes, individual hearts, TMZ 20 μM, TNF 2 μM each, TNS 20 μM each) it was 2.42E+01 ul/m1 and 5.87E+01 ul/m1 and 3.57E+01 ul/m1 and 3.37E+01 ul/m1 and 5.21E+01 ul/m1 and 2.73E+01 ul/m1 and 2.60E+01 ul/m1 and 6.39E+01 ul/m1. Moreover, the “LVDP × HR” value in series [4] (after 2h reperfusion, group MEAN) is 6.82E+03; in series [4] (after 2h reperfusion, individual hearts), 2.52E+03 and 5.15E+03 and 5.28E+03 and 4.49E+03 and 3.24E+03 and 4.31E+03 and 9.11E+03 and 1.30E+04 and 6.44E+03 and 1.77E+04; in series [4] (pre-ischemia, group MEAN) it was 1.68E+04; in series [4] (pre-ischemia, individual hearts), 1.83E+04 and 2.31E+04 and 1.08E+04 and 1.77E+04 and 2.33E+04 and 1.26E+04 and 9.82E+03 and 1.01E+04 and 1.57E+04 and 2.36E+04. Further, the “cardiac function after IR” value in series [4] (result in words) was “prevented a decline in cardiac function”. Also, the “infarct size after IR” value in series [5] is “decreased infarct size”.

The values above are taken from patent US20220168431A1, “METHODS OF TREATING CANCER USING TRIMETAZIDINE-BASED COMPOUNDS” (IMBRIA PHARMACEUTICALS, INC., priority 2019, published 2022).
